US20230390319A1, “INTERFERON GENE STIMULATOR COMPOSITION COMPRISING INDOLIZINE DERIVATIVE AS ACTIVE INGREDIENT” (AJOU UNIVERSITY INDUSTRY-ACADEMIC COOPERATION FOUNDATION, priority 2020, published 2023)
“And” between values parts separate entries of the source, which are not always exact repeats. Equal values may be shown once. Read-outs that look alike come from different tables or passages of the source.

Test: PK profiles after IV and PO administration to BALB/c mice
Type: in vivo
Conditions: for MRT last: read-out: MRT(0-t); for MRT inf: read-out: MRT(0-∞)
Excerpt: The pharmacokinetics and oral bioavailability of Compound 42 were investigated in mice following single intravenous (IV) injection and oral administration (PO).

[1] = BALB/c, mouse, blood, po, 20 mg/kg, PO 20.0 mg/kg, individual animals
[2] = BALB/c, mouse, blood, po, 20 mg/kg, PO 20.0 mg/kg, mean n=3
[3] = IV 5.0 mg/kg, individual animals, 5 mg/kg
[4] = PO 20.0 mg/kg, individual animals, 20 mg/kg

A concentration at 24 h (BALB/c, mouse, blood, po, 20 mg/kg, PO 20 mg/kg, 24.00 h, individual animals 201-203, read-out: concentration in blood) of 39 ng/mL, a concentration at 24 h (BALB/c, mouse, blood, po, 20 mg/kg, PO 20 mg/kg, 24.00 h, mean, read-out: concentration in blood, Mean PO) of 42.4 ng/mL and an AUC(0-t) (BALB/c, mouse, blood, po, 20 mg/kg, PO 20.0 mg/kg, individual animals, read-out: AUC(0-t)) of 2100 ng·h/mL were found for `CC(=O)c1ccc(-c2cc(C(=O)c3ccc(C(F)(F)F)cc3)n3ccccc23)cc1` [Compound 42] in this work. For the same molecule, the AUC(0-inf) (BALB/c, mouse, blood, po, 20 mg/kg, PO 20.0 mg/kg, individual animals, read-out: AUC(0-∞)) was 2750 ng·h/mL, the Cmax (BALB/c, mouse, blood, po, 20 mg/kg, PO 20.0 mg/kg, individual animals, read-out: Cmax) was 211 ng/mL and the MRT last [1] was 7.66 h. It also gave an MRT inf [1] of 15.5 h, a half-life (BALB/c, mouse, blood, po, 20 mg/kg, PO 20.0 mg/kg, individual animals, read-out: T1/2 (converted)) of 11.6 h and an AUC(0-t) (BALB/c, mouse, blood, po, 20 mg/kg, PO 20.0 mg/kg, mean n=3, read-out: AUC(0-t)) of 2320 ng·h/mL. The AUC(0-inf) (BALB/c, mouse, blood, po, 20 mg/kg, PO 20.0 mg/kg, mean n=3, read-out: AUC(0-∞)) was 3030 ng·h/mL, the Cmax (BALB/c, mouse, blood, po, 20 mg/kg, PO 20.0 mg/kg, mean n=3, read-out: Cmax) was 225 ng/mL and the MRT last [2] was 7.64 h. The MRT inf [2] was 15.4 h, the half-life (BALB/c, mouse, blood, po, 20 mg/kg, PO 20.0 mg/kg, mean n=3, read-out: T1/2 (converted)) was 11.6 h and the AUC(0-inf) (BALB/c, mouse, blood, po, 20 mg/kg, PO administration of 20 mpk, read-out: AUC∞) was 3030 ng·h/mL. For the same molecule, the Cmax (BALB/c, mouse, blood, po, 20 mg/kg, PO administration of 20 mpk, read-out: Cmax) was 224 ng/mL, the half-life (BALB/c, mouse, blood, po, 20 mg/kg, PO administration of 20 mpk, read-out: half-life (converted)) was 11.6 h and the Tmax (BALB/c, mouse, blood, IV 5.0 mg/kg, mean n=3) was 0.083 h. The Tmax (BALB/c, mouse, blood, PO 20.0 mg/kg, individual animals) was 1 h, the concentration in blood (IV 5 mg/kg, 0.083 h, individual animals 101-103, 5 mg/kg) was 2724.650 ng/mI and 2922.650 ng/mI and the concentration in blood (IV 5 mg/kg, 0.25 h, individual animals 101-103, 5 mg/kg) was 1228.390 ng/mI and 1506.240 ng/mI. For the same molecule, the concentration in blood (IV 5 mg/kg, 0.50 h, individual animals 101-103, 5 mg/kg) was 741.777 ng/mI and 916.427 ng/mI, the concentration in blood (IV 5 mg/kg, 1.00 h, individual animals 101-103, 5 mg/kg) was 319.272 ng/mI and 350.728 ng/mI and the concentration in blood (IV 5 mg/kg, 4.00 h, individual animals 101-103, 5 mg/kg) was 129.441 ng/mI and 94.754 ng/mI. The concentration in blood (IV 5 mg/kg, 24.00 h, individual animals 101-103, 5 mg/kg) was 45.260 ng/mI and 30.044 ng/mI, the “AUCINF_obs AUC(0-∞)” value [3] was 4161.11 ng·h/mL and 3533.38 ng·h/mL and the “AUClast AUC(0-t)” value [3] was 3542.76 ng·h/mL and 3195.55 ng·h/mL. The C0 [3] was 4048.20 ng/mL and 4063.09 ng/mL, the “Cl_obs Cl” value [3] was 20.0267 mL/min/kg and 23.5847 mL/min/kg and the Cmax [3] was 2724.65 ng/mL and 2922.65 ng/mL. For the same molecule, the “HL_Lambda_z T1/2” value [3] was 9.47 h and 7.79 h, the “MRTINF_obs MRT(0-∞)” value [3] was 9.83 h and 6.90 h and the “MRTlast MRT(0-t)” value [3] was 4.97 h and 3.90 h. For the same molecule, the “Vss_obs Vss” value [3] was 11.80918 L/kg and 9.76009 L/kg, the “Vz_obs Vz” value [3] was 16.41627 L/kg and 15.912 L/kg and the concentration in blood (PO 20 mg/kg, 0.25 h, individual animals 201-203, 20 mg/kg) was 114.648 ng/mI and 79.841 ng/mI. The concentration in blood (PO 20 mg/kg, 0.50 h, individual animals 201-203, 20 mg/kg) was 164.520 ng/mI and 165.563 ng/mI, the concentration in blood (PO 20 mg/kg, 1.00 h, individual animals 201-203, 20 mg/kg) was 232.437 ng/mI and 230.000 ng/mI and the concentration in blood (PO 20 mg/kg, 3.00 h, individual animals 201-203, 20 mg/kg) was 155.307 ng/mI and 179.295 ng/mI. The concentration in blood (PO 20 mg/kg, 6.00 h, individual animals 201-203, 20 mg/kg) was 123.919 ng/mI and 111.651 ng/mI, the concentration in blood (PO 20 mg/kg, 24.00 h, individual animals 201-203, 20 mg/kg) was 37.325 ng/mI and 50.885 ng/mI and the “AUC(0-t)” value [4] was 2406.25 ng·h/mL and 2448.08 ng·h/mL. For the same molecule, the “AUC(0-∞)” value [4] was 2959.50 ng·h/mL and 3385.50 ng·h/mL, the Cmax [4] was 232.44 ng/mL and 230.00 ng/mL and the F [4] was 15.87% and 18.22% and 18.54%. For the same molecule, the “MRT(0-t)” value [4] was 7.22 h and 8.04 h, the “MRT(0-∞)” value [4] was 13.12 h and 17.56 h and the T1/2 [4] was 10.27 h and 12.77 h. For the same molecule, the F (PO 20.0 mg/kg, mean n=3) was 17.55%.
